The values below are quoted from earlier work in publication PMC7583271 (Journal of Insect Science, 2020).

Each structure is given as a SMILES string.

The term Kd denotes the concentration at which binding is half-saturated.

For this series, the target named is antennal binding protein (PxylABP, accession no. AB189031.1). The note with it: unit inferred, ref Deng et al. 2016.

In the case of `C=CCN=C=S` [Allyl isothiocyanate], the Kd is 910 nM.
